{"source": "paper PMC6407913", "about": "“DREADD Agonist 21 Is an Effective Agonist for Muscarinic-Based DREADDs in Vitro and in Vivo” (ACS Pharmacology & Translational Science, 2018)", "type_in_all_cases": "cell-based", "key": {"[1]": {"target": "T1, 318 nonolfactory human GPCRs (Homo sapiens, UniProt P41594)", "T1 construct": "expressed in transfected cells; host or cells: HTLA cells, transient", "settings": "GRM5; C21 5 µM"}, "[2]": {"target": "318 nonolfactory human GPCRs (Homo sapiens, UniProt P21728)", "settings": "DRD1; C21 5 µM"}, "[3]": {"target": "T2, 318 nonolfactory human GPCRs (Homo sapiens, UniProt Q9BXA5)", "T2 construct": "expressed in transfected cells; host or cells: HTLA cells, transient", "settings": "SUCNR1; C21 5 µM"}, "[4]": {"target": "T3, 318 nonolfactory human GPCRs (Homo sapiens, UniProt Q8TDV2)", "T3 construct": "expressed in transfected cells; host or cells: HTLA cells, transient", "T3 sequence (Q8TDV2 whole entry)": "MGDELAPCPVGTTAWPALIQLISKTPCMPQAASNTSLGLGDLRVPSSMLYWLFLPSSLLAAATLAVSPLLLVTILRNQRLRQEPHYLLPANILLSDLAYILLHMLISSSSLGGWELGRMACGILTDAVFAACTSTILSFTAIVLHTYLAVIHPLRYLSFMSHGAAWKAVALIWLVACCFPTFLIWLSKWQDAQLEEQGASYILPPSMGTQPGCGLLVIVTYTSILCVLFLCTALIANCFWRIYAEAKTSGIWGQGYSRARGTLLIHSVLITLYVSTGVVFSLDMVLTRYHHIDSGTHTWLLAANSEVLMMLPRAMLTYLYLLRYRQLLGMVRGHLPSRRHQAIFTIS", "settings": "GPR148; C21 5 µM"}, "[5]": {"target": "T4, 318 nonolfactory human GPCRs (Homo sapiens, UniProt Q13639)", "T4 construct": "expressed in transfected cells; host or cells: HTLA cells, transient", "settings": "HTR4; C21 5 µM"}, "[6]": {"target": "T5, 318 nonolfactory human GPCRs (Homo sapiens, UniProt P04201)", "T5 construct": "expressed in transfected cells; host or cells: HTLA cells, transient", "settings": "MAS1; C21 5 µM"}, "[7]": {"target": "T6, 318 nonolfactory human GPCRs (Homo sapiens, UniProt Q9BXC0)", "T6 construct": "expressed in transfected cells; host or cells: HTLA cells, transient", "T6 sequence (Q9BXC0 whole entry)": "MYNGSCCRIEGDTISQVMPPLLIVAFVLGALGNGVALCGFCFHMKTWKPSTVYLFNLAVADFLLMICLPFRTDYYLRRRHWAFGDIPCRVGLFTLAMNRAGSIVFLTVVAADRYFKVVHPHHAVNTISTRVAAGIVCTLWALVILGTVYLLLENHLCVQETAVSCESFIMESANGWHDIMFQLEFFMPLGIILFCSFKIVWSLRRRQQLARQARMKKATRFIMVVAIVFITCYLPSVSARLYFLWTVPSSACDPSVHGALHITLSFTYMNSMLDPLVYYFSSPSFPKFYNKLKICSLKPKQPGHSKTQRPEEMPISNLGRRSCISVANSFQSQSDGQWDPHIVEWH", "settings": "HCA1; C21 5 µM"}, "[8]": {"target": "T7, 318 nonolfactory human GPCRs (Homo sapiens, UniProt P47898)", "T7 construct": "expressed in transfected cells; host or cells: HTLA cells, transient", "settings": "HTR5; C21 5 µM"}, "[9]": {"target": "T8, 318 nonolfactory human GPCRs (Homo sapiens, UniProt P46089)", "T8 construct": "expressed in transfected cells; host or cells: HTLA cells, transient", "settings": "GPR3; C21 5 µM"}, "[10]": {"target": "T9, 318 nonolfactory human GPCRs (Homo sapiens, UniProt P29274)", "T9 construct": "expressed in transfected cells; host or cells: HTLA cells, transient", "T9 sequence (P29274 whole entry)": "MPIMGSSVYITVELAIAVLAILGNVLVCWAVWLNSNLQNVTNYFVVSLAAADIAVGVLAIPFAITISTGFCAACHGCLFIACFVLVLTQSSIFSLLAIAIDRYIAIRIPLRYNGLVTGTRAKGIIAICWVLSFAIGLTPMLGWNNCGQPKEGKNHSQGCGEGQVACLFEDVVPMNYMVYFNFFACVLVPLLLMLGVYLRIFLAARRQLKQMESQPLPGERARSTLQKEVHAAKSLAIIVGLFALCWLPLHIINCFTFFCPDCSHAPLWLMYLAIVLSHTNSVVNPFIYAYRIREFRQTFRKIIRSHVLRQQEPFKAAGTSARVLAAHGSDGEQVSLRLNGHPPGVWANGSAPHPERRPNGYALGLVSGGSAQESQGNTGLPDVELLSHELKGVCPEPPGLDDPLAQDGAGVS", "settings": "ADORA2A; C21 5 µM"}, "[11]": {"target": "T10, 318 nonolfactory human GPCRs (Homo sapiens, UniProt P35367)", "T10 construct": "expressed in transfected cells; host or cells: HTLA cells, transient", "settings": "HRH1; C21 5 µM"}, "[12]": {"target": "T11, 318 nonolfactory human GPCRs (Homo sapiens, UniProt O95800)", "T11 construct": "expressed in transfected cells; host or cells: HTLA cells, transient", "settings": "GPR75; C21 5 µM"}, "[13]": {"target": "T12, 318 nonolfactory human GPCRs (Homo sapiens, UniProt Q8WXD0)", "T12 construct": "expressed in transfected cells; host or cells: HTLA cells, transient", "settings": "RXFP2; C21 5 µM"}, "[14]": {"target": "T13, 318 nonolfactory human GPCRs (Homo sapiens, UniProt Q92633)", "T13 construct": "expressed in transfected cells; host or cells: HTLA cells, transient", "settings": "LPAR1; C21 5 µM"}, "[15]": {"target": "318 nonolfactory human GPCRs (Homo sapiens, UniProt P25103)", "sequence (P25103 whole entry)": "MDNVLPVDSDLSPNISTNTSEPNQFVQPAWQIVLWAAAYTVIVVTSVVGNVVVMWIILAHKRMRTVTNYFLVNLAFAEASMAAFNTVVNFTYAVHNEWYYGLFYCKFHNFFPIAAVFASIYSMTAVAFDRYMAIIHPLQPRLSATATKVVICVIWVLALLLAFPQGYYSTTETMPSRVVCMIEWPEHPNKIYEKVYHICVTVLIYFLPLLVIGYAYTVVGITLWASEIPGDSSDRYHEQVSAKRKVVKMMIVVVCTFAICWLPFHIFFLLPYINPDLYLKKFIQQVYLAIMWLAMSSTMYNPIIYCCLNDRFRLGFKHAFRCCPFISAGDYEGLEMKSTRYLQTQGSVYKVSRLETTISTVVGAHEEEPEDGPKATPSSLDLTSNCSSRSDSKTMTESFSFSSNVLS", "settings": "TACR1; C21 5 µM"}, "[16]": {"target": "T14, 318 nonolfactory human GPCRs (Homo sapiens, UniProt P20309)", "T14 construct": "expressed in transfected cells; host or cells: HTLA cells, transient", "T14 sequence (P20309 whole entry)": "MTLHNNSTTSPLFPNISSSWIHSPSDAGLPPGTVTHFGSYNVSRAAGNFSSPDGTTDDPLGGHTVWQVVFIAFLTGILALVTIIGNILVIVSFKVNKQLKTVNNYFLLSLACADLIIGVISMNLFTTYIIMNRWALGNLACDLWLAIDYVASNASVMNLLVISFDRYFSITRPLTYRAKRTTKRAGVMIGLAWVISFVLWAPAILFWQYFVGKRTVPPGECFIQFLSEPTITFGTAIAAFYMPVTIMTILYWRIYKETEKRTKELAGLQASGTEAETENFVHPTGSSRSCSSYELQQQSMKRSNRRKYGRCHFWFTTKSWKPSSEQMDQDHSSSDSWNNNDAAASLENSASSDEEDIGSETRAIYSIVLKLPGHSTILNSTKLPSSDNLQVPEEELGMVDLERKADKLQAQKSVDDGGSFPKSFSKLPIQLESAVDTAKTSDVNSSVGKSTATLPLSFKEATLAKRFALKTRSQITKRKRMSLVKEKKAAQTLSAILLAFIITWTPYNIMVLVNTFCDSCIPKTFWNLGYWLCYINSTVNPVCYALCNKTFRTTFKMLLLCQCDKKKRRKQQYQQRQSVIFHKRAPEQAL", "settings": "CHRM3; C21 5 µM"}, "[17]": {"target": "T15, 318 nonolfactory human GPCRs (Homo sapiens, UniProt Q9GZN0)", "T15 construct": "expressed in transfected cells; host or cells: HTLA cells, transient", "settings": "GPR88; C21 5 µM"}, "[18]": {"target": "T16, 318 nonolfactory human GPCRs (Homo sapiens, UniProt Q9Y2T5)", "T16 construct": "expressed in transfected cells; host or cells: HTLA cells, transient", "settings": "GPR52; C21 5 µM"}, "[19]": {"target": "T17, 318 nonolfactory human GPCRs (Homo sapiens, UniProt Q9BZJ7)", "T17 construct": "expressed in transfected cells; host or cells: HTLA cells, transient", "settings": "GPR62; C21 5 µM"}, "[20]": {"target": "T18, 318 nonolfactory human GPCRs (Homo sapiens, UniProt Q01726)", "T18 construct": "expressed in transfected cells; host or cells: HTLA cells, transient", "settings": "MC1R; C21 5 µM"}, "[21]": {"target": "T19, 318 nonolfactory human GPCRs (Homo sapiens, UniProt P25105)", "T19 construct": "expressed in transfected cells; host or cells: HTLA cells, transient", "settings": "PTAFR; C21 5 µM"}, "[22]": {"target": "T20, 318 nonolfactory human GPCRs (Homo sapiens, UniProt Q8NGU9)", "T20 construct": "expressed in transfected cells; host or cells: HTLA cells, transient", "T20 sequence (Q8NGU9 whole entry)": "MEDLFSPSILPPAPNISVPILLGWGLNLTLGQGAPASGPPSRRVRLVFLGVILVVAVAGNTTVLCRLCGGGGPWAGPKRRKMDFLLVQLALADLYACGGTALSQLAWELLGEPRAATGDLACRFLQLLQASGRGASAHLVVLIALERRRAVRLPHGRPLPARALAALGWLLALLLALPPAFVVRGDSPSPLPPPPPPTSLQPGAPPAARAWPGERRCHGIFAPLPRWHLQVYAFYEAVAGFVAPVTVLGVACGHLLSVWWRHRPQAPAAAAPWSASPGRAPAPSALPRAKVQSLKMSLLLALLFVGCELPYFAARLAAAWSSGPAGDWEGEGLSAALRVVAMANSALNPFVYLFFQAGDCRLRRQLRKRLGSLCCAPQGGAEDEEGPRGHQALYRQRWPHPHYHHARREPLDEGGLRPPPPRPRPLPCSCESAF", "settings": "GPR150; C21 5 µM"}, "[23]": {"target": "T21, 318 nonolfactory human GPCRs (Homo sapiens, UniProt Q86SQ6)", "T21 construct": "expressed in transfected cells; host or cells: HTLA cells, transient", "settings": "GPR123; C21 5 µM"}, "[24]": {"target": "T22, 318 nonolfactory human GPCRs (Homo sapiens, UniProt Q9NS66)", "T22 construct": "expressed in transfected cells; host or cells: HTLA cells, transient", "settings": "GPR173; C21 5 µM"}, "[25]": {"target": "T23, 318 nonolfactory human GPCRs (Homo sapiens, UniProt Q15391)", "T23 construct": "expressed in transfected cells; host or cells: HTLA cells, transient", "T23 sequence (Q15391 whole entry)": "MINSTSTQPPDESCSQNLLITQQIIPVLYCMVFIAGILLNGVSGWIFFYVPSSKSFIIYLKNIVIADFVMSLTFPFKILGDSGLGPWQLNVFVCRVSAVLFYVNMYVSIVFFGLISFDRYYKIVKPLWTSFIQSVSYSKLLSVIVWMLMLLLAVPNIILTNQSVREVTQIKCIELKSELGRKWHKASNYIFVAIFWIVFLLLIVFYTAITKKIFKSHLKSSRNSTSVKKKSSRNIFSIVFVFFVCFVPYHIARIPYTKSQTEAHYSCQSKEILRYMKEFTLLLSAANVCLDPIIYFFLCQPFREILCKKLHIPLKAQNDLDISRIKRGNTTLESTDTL", "settings": "P2RY14; C21 5 µM"}, "[26]": {"target": "318 nonolfactory human GPCRs (Homo sapiens, UniProt O95977)", "settings": "S1PR4; C21 5 µM"}, "[27]": {"target": "T24, 318 nonolfactory human GPCRs (Homo sapiens, UniProt P32248)", "T24 construct": "expressed in transfected cells; host or cells: HTLA cells, transient", "T24 sequence (P32248 25-378)": "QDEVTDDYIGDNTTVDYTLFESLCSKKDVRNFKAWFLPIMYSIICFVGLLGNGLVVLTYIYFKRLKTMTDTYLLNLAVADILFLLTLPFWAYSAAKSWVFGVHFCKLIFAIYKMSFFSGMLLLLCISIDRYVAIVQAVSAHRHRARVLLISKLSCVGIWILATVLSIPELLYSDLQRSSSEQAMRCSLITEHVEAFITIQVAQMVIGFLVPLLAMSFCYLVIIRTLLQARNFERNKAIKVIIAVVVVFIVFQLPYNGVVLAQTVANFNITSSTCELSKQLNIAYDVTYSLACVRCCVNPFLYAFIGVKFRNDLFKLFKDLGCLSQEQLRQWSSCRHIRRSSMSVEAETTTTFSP", "settings": "CCR7; C21 5 µM"}, "[28]": {"target": "T25, 318 nonolfactory human GPCRs (Homo sapiens, UniProt P51582)", "T25 construct": "expressed in transfected cells; host or cells: HTLA cells, transient", "settings": "P2RY4; C21 5 µM"}, "[29]": {"target": "T26, 318 nonolfactory human GPCRs (Homo sapiens, UniProt Q8TDU6)", "T26 construct": "expressed in transfected cells; host or cells: HTLA cells, transient", "T26 sequence (Q8TDU6 whole entry)": "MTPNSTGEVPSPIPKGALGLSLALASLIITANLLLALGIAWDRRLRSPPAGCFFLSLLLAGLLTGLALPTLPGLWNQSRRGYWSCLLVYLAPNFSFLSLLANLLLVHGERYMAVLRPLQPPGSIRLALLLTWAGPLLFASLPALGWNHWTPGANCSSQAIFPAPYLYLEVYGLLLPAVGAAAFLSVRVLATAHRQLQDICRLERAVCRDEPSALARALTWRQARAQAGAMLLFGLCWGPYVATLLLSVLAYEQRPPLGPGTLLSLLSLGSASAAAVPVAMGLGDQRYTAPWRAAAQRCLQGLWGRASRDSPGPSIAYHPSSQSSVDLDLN", "settings": "GPBA; C21 5 µM"}, "[30]": {"target": "T27, 318 nonolfactory human GPCRs (Homo sapiens, UniProt O15218)", "T27 construct": "expressed in transfected cells; host or cells: HTLA cells, transient", "settings": "GPR182; C21 5 µM"}, "[31]": {"target": "T28, 318 nonolfactory human GPCRs (Homo sapiens, UniProt Q9P296)", "T28 construct": "expressed in transfected cells; host or cells: HTLA cells, transient", "settings": "GPR77; C21 5 µM"}, "[32]": {"target": "T29, 318 nonolfactory human GPCRs (Homo sapiens, UniProt Q9UJ42)", "T29 construct": "expressed in transfected cells; host or cells: HTLA cells, transient", "T29 sequence (Q9UJ42 whole entry)": "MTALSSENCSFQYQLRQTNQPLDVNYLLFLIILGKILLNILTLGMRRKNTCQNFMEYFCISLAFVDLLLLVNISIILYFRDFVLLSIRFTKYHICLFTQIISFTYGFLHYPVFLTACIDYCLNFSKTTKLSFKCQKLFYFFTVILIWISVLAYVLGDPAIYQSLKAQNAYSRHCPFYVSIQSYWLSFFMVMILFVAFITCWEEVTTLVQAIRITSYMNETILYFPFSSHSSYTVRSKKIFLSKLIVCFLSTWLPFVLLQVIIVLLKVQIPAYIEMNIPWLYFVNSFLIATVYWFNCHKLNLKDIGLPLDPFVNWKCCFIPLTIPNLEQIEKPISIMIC", "settings": "GPR160; C21 5 µM"}, "[33]": {"target": "T30, 318 nonolfactory human GPCRs (Homo sapiens, UniProt Q8IZP9)", "T30 construct": "expressed in transfected cells; host or cells: HTLA cells, transient", "T30 sequence (Q8IZP9 38-1017)": "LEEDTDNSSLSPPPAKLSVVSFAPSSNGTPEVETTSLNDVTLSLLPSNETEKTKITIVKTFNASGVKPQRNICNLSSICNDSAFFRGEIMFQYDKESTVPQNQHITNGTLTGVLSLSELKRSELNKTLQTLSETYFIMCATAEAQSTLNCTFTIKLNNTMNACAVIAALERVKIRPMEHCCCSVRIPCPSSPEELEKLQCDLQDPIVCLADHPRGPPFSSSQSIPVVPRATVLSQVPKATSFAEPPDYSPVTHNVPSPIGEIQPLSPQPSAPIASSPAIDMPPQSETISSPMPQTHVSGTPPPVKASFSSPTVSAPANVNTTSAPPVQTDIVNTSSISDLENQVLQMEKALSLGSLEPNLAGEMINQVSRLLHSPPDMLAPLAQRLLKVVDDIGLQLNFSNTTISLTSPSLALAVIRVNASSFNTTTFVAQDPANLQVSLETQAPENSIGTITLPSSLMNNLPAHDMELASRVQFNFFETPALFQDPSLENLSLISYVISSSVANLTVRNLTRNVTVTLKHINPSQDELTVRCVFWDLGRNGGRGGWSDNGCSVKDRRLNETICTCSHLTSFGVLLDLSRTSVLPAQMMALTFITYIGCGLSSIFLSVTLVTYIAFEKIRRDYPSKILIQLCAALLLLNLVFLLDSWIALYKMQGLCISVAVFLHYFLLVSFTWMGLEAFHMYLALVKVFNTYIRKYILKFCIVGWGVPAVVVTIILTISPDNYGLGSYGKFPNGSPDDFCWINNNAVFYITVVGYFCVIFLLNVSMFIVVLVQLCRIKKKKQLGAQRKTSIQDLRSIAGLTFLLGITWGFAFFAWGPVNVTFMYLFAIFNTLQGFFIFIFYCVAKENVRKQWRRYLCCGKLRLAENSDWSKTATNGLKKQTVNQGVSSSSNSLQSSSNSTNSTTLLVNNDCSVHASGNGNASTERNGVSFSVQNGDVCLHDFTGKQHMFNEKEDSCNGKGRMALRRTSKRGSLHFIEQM", "settings": "GPR64; C21 5 µM"}, "[34]": {"target": "318 nonolfactory human GPCRs (Homo sapiens, UniProt P41595)", "settings": "HTR2B; C21 5 µM"}}, "note": "“And” between values parts separate entries of the source, which are not always exact repeats. Identical values can stand only once.", "data": [{"smiles": "c1ccc2c(c1)N=C(N1CCNCC1)c1ccccc1N2", "note": "[C21, 11-(1-piperazinyl)-5H-dibenzo[b,e][1,4]diazepine]", "values": [{"measurement": "FOLD OVER BASAL", "setting": "[1]", "result": "1.1 fold and 0.7 fold"}, {"measurement": "FOLD OVER BASAL", "setting": "[2]", "result": "0.9 fold and 0.8 fold and 0.5 fold and 0.6 fold"}, {"measurement": "FOLD OVER BASAL", "setting": "[3]", "result": "0.6 fold and 0.7 fold"}, {"measurement": "FOLD OVER BASAL", "setting": "[4]", "result": "0.9 fold and 0.6 fold and 0.5 fold and 1 fold"}, {"measurement": "FOLD OVER BASAL", "setting": "[5]", "result": "1.2 fold and 0.8 fold"}, {"measurement": "FOLD OVER BASAL", "setting": "[6]", "result": "1.1 fold and 0.9 fold and 1 fold"}, {"measurement": "FOLD OVER BASAL", "setting": "[7]", "result": "1.8 fold and 1.3 fold and 1.7 fold and 0.9 fold"}, {"measurement": "FOLD OVER BASAL", "setting": "[8]", "result": "0.9 fold and 1 fold and 0.8 fold"}, {"measurement": "FOLD OVER BASAL", "setting": "[9]", "result": "0.8 fold and 0.9 fold and 0.7 fold"}, {"measurement": "FOLD OVER BASAL", "setting": "[10]", "result": "0.6 fold and 0.7 fold and 0.5 fold and 0.4 fold"}, {"measurement": "FOLD OVER BASAL", "setting": "[11]", "result": "0.9 fold and 0.6 fold and 0.8 fold"}, {"measurement": "FOLD OVER BASAL", "setting": "[12]", "result": "1.1 fold and 0.8 fold and 0.7 fold"}, {"measurement": "FOLD OVER BASAL", "setting": "[13]", "result": "1.1 fold and 0.9 fold"}, {"measurement": "FOLD OVER BASAL", "setting": "[14]", "result": "1 fold and 0.8 fold"}, {"measurement": "FOLD OVER BASAL", "setting": "[15]", "result": "1.1 fold and 0.8 fold and 0.9 fold"}, {"measurement": "FOLD OVER BASAL", "setting": "[16]", "result": "3.1 fold and 3.7 fold and 2.6 fold and 3.4 fold"}, {"measurement": "FOLD OVER BASAL", "setting": "[17]", "result": "1.1 fold and 1.9 fold and 1.5 fold"}, {"measurement": "FOLD OVER BASAL", "setting": "[18]", "result": "0.8 fold and 1 fold and 0.6 fold"}, {"measurement": "FOLD OVER BASAL", "setting": "[19]", "result": "0.8 fold and 0.5 fold and 0.9 fold"}, {"measurement": "FOLD OVER BASAL", "setting": "[20]", "result": "0.9 fold and 1.1 fold and 1 fold and 0.7 fold"}, {"measurement": "FOLD OVER BASAL", "setting": "[21]", "result": "0.8 fold and 0.7 fold and 1.1 fold"}, {"measurement": "FOLD OVER BASAL", "setting": "[22]", "result": "1.6 fold and 1.5 fold and 1.7 fold"}, {"measurement": "FOLD OVER BASAL", "setting": "[23]", "result": "1.2 fold and 0.7 fold and 1.1 fold and 0.9 fold"}, {"measurement": "FOLD OVER BASAL", "setting": "[24]", "result": "0.8 fold and 0.5 fold"}, {"measurement": "FOLD OVER BASAL", "setting": "[25]", "result": "0.9 fold and 0.7 fold and 1.1 fold and 0.8 fold"}, {"measurement": "FOLD OVER BASAL", "setting": "[26]", "result": "1.3 fold and 1 fold and 0.7 fold and 1.1 fold"}, {"measurement": "FOLD OVER BASAL", "setting": "[27]", "result": "1.6 fold and 0.9 fold and 0.8 fold"}, {"measurement": "FOLD OVER BASAL", "setting": "[28]", "result": "1 fold and 0.9 fold"}, {"measurement": "FOLD OVER BASAL", "setting": "[29]", "result": "1.1 fold and 1 fold and 1.2 fold"}, {"measurement": "FOLD OVER BASAL", "setting": "[30]", "result": "0.9 fold and 1 fold and 1.1 fold and 0.7 fold"}, {"measurement": "FOLD OVER BASAL", "setting": "[31]", "result": "0.7 fold and 0.6 fold"}, {"measurement": "FOLD OVER BASAL", "setting": "[32]", "result": "1.3 fold and 1 fold and 0.8 fold"}, {"measurement": "FOLD OVER BASAL", "setting": "[33]", "result": "0.6 fold and 0.7 fold and 0.8 fold"}, {"measurement": "FOLD OVER BASAL", "setting": "[34]", "result": "0.3 fold and 0.2 fold"}]}]}
